Reference: patent US20230012936A1, “COMBINATION THERAPY USING GLUCAGON AND GLP-1 CO-AGONISTS FOR THE TREATMENT OF OBESITY” (MEDIMMUNE, LLC, priority 2019, published 2023)

How the values were obtained:
Type in all cases: in vivo, human
[1] = test system: overweight/obese subjects with Type 2 Diabetes Mellitus (T2DM); assay: Mixed-meal tolerance test (MMTT) plasma glucose AUC0-4 h, Phase 2a study
Method: Subjects were admitted to the unit on Day −2 and on Day 27. On Day −1 and on Day 28, following a minimum 10 hour fast, a blood sample for glucose metabolism panel (glucose, insulin, C-peptide, glucagon, and active GLP-1) was taken immediately prior to the subject drinking a standardized mixed meal (t=“0 minutes”). The subject then consumed a can of Ensure Plus, which is a nutritional supplement containing the components of fat, carbohydrate, and protein that make up a standard mixed-meal tolerance test (MMTT). After the meal, timed, serial blood samples were obtained for measurement of glucose and parameters related to glucose metabolism (with no additional food intake during this time). The MMTT was performed on Day-1 and Day 28.
Blood samples for the glucose metabolism panel were drawn at t=“0 minutes” (before meal) and at 15, 30, 45, 60, 90, 120, 180, and 240 minutes (±5 minutes) after consumption of the standardized meal. Additional sampling for glucagon, insulin, C-peptide, and glucose was taken at 6, 8, 12, and 24 hours (±30 minutes) post-administration (t=“0 minutes”) of the standardized meal on Day −1 and 28.
The change and percent change from baseline (Day-1) to the end of the 28 days of treatment (Day 28) in glucose AUC0-4 h were determined as measured by the MMTT. In addition, the change from baseline (Day −1) to Day 28 in active GLP-1, glucagon, insulin, and C-peptide AUC0-4 h were also measured by MMTT.

[2] = test system: overweight/obese subjects with Type 2 Diabetes Mellitus (T2DM); assay: Fasting plasma glucose (FPG), Phase 2a study
Method: The change in fasting plasma glucose (FPG) from baseline to Day 28 was assessed.

[3] = test system: overweight/obese subjects with Type 2 Diabetes Mellitus (T2DM); assay: Fasting free fatty acid (FFA) levels; conditions: Day 28 (300 μg); vs placebo
Method: The changes in fasting free fatty acid (FFA) from baseline to the end of each dose level were assessed. Fasting FFA changes from baseline to Day 7 (100 μg), Day 14 (200 μg), or Day 28 (300 μg) were similar between treatment groups (LS mean difference at Day 28: −0.04 mEq/L; p=0.5322).

[4] = test system: overweight/obese subjects with Type 2 Diabetes Mellitus (T2DM); assay: 24-hour glucose urine excretion; conditions: Day 28
Method: Changes in 24-hour glucose urine excretion from baseline to Day 28 were assessed. At baseline, subjects in the cotadutide group had less urine glucose excretion compared with subjects in the placebo group (4552.85 vs 9107.06 mg/24 hr, respectively).

[5] = Immunogenicity: anti-drug antibody (ADA) response to cotadutide
Method: (§1) Blood samples were collected to evaluate anti-drug antibody (ADA) response to cotadutide. Serum samples were evaluated for ADA using a validated immunoassay. Adverse events (AEs) and serious adverse events (SAEs) were collected from the time of informed consent throughout the treatment period and including the follow-up period. AEs and SAEs were graded by severity and relationship to investigational product and SAEs were assessed for relationship to protocol procedures.
Development of ADA and titres (in any subjects testing positive) were assessed to evaluate the immunogenicity profile of cotadutide titrated up to a dose of 300 μg. No subjects in the placebo group and 3 subjects (12.0%) in the cotadutide group tested positive for ADA at baseline. None of these subjects who tested positive at baseline were ADA positive post-baseline. One subject (4.2%) in the placebo group and 3 subjects (12.5%) in the cotadutide group were ADA positive post-baseline.

[6] = Safety: adverse events, laboratory values, vital signs, ECG
Method: as §1

[7] = Day 28, ITT, metformin and dapagliflozin background
[8] = baseline to Day 28, vs placebo, ANCOVA

CCCCCCCCCCCCCCCC(=O)N[C@@H](CCC(=O)NCCCC[C@H](NC(=O)[C@H](CC(=O)O)NC(=O)[C@H](CO)NC(=O)[C@@H](NC(=O)[C@H](Cc1ccccc1)NC(=O)[C@@H](NC(=O)CNC(=O)[C@H](CCC(N)=O)NC(=O)[C@H](CO)NC(=O)[C@@H](N)Cc1c[nH]cn1)[C@@H](C)O)[C@@H](C)O)C(=O)N[C@@H](CO)C(=O)N[C@@H](CCC(=O)O)C(=O)N[C@@H](Cc1ccc(O)cc1)C(=O)N[C@@H](CC(C)C)C(=O)N[C@@H](CC(=O)O)C(=O)N[C@@H](CO)C(=O)N[C@@H](CCC(=O)O)C(=O)N[C@@H](CCCNC(=N)N)C(=O)N[C@@H](C)C(=O)N[C@@H](CCCNC(=N)N)C(=O)N[C@@H](CC(=O)O)C(=O)N[C@@H](Cc1ccccc1)C(=O)N[C@H](C(=O)N[C@@H](C)C(=O)N[C@@H](Cc1c[nH]c2ccccc12)C(=O)N[C@@H](CC(C)C)C(=O)N[C@@H](CCC(=O)O)C(=O)N[C@@H](C)C(=O)NCC(=O)NCC(=O)O)C(C)C)C(=O)O [Cotadutide]
Plasma glucose AUC0-4 h after MMTT, Day 28, mean [1, 7]: 523.72 mg·h/dL
Plasma glucose AUC0-4 h after MMTT, Day 28, median [1, 7]: 481.57 mg·h/dL
Plasma glucose AUC0-4 h after MMTT, change from baseline, LS mean ([1]; baseline to Day 28, ANCOVA): -154.37 mg·h/dL
Plasma glucose AUC0-4 h after MMTT, percent change from baseline, LS mean ([1]; baseline to Day 28, ANCOVA): −22.30%
Plasma glucose AUC0-4 h after MMTT, change from baseline, mean ([1]; baseline to Day 28, ITT): -151.29 mg·h/dL
Plasma glucose AUC0-4 h after MMTT, change from baseline, median ([1]; baseline to Day 28, ITT): -148.29 mg·h/dL
Plasma glucose AUC0-4 h after MMTT, percent change from baseline, mean ([1]; baseline to Day 28, ITT): −22.03%
Plasma glucose AUC0-4 h after MMTT, percent change from baseline, median ([1]; baseline to Day 28, ITT): −25.55%
Plasma glucose AUC0-4 h after MMTT, change from baseline, LS mean difference [1, 8]: -143.09 mg·h/dL
Plasma glucose AUC0-4 h after MMTT, percent change from baseline, LS mean difference [1, 8]: −22.17%
Fasting plasma glucose, Day 28 (LOCF), mean ([2]; Day 28 (LOCF), ITT): 115.33 mg/dL
Fasting plasma glucose, Day 28 (LOCF), median ([2]; Day 28 (LOCF), ITT): 106.32 mg/dL
Fasting plasma glucose, change from baseline (LOCF), mean ([2]; baseline to Day 28): -34.24 mg/dL
Fasting plasma glucose, change from baseline (LOCF), median ([2]; baseline to Day 28): -43.25 mg/dL
Fasting plasma glucose, change from baseline (LOCF), LS mean ([2]; baseline to Day 28, ANCOVA): -34.15 mg/dL
Fasting plasma glucose, change from baseline (LOCF), LS mean difference ([2]; baseline to Day 28, vs placebo): -37.73 mg/dL
Fasting FFA change from baseline, LS mean difference [3]: −0.04 mEq/L
24-hour glucose urine excretion, change from baseline, LS mean [4]: −643.46 mg/24h
24-hour glucose urine excretion, change from baseline, LS mean difference ([4]; vs placebo): 921.26 mg/24h
Subjects ADA positive post-baseline ([5]; 3 subjects): 12.5%
Subjects ADA positive at Day 29 ([5]; Day 29, 1 subject): 4.2%
Subjects ADA positive at the End of Study ([5]; End of Study, 2 subjects): 8.3%
Treatment boosted ADA (baseline titre boosted 4-fold or higher) ([5]; during drug administration): No subjects had a treatment boosted ADA
Incidence of treatment-emergent adverse events (TEAEs) ([6]; As-treated, 28 days): 52.0%
Subjects with a TEAE that led to discontinuation of investigational product ([6]; abdominal pain and vomiting): Two
Incidence of investigational product-related TEAEs ([6]; as judged by the investigator): 40.0%
Heart rate ([6]; compared with the placebo group): increased heart rate was observed
Blood pressure (BP) ([6]; in vivo): No meaningful changes
Hematology, serum chemistry, or urinalysis laboratory values ([6]; in vivo): no clinically meaningful trends
Severity of TEAEs ([6]; in vivo): mild (Grade 1) or moderate (Grade 2)
Electrocardiogram (ECG) parameters ([6]; with the exception of heart rate): no clinically meaningful trends
